Patent EP4745137A1 (Gluetacs Therapeutics (Shanghai) Co., Ltd., priority 2023, dated 2025)

Assays:
Format in all cases: cell-based
Settings in all cases: 24 hours of compound treatment
IKZF1 = target: T1, IKZF1 (Homo sapiens, UniProt Q13422+Q96SW2); assay: Western-blot assay of substrate protein degradation in hPBMCs, IKZF1
T1 construct: endogenous in cells; host or cells: hPBMCs (Milecell Biotechnologies)

GSPT1 = target: T2, GSPT1 (Homo sapiens, UniProt P15170+Q96SW2); assay: Western-blot assay of substrate protein degradation in hPBMCs, GSPT1
T2 construct: endogenous in cells; host or cells: hPBMCs (Milecell Biotechnologies)

WEE1 = target: T3, WEE1 (Homo sapiens, UniProt P30291+Q96SW2); assay: Western-blot assay of substrate protein degradation in hPBMCs, WEE1
T3 construct: endogenous in cells; host or cells: hPBMCs (Milecell Biotechnologies)

IKZF2 = target: T4, IKZF2 (Homo sapiens, UniProt Q96SW2+Q9UKS7); assay: Western-blot assay of substrate protein degradation in hPBMCs, IKZF2
T4 construct: endogenous in cells; host or cells: hPBMCs (Milecell Biotechnologies)

IKZF3 = target: T5, IKZF3 (Homo sapiens, UniProt Q96SW2+Q9UKT9); assay: Western-blot assay of substrate protein degradation in hPBMCs, IKZF3
T5 construct: endogenous in cells; host or cells: hPBMCs (Milecell Biotechnologies)

CK1α = target: T6, CK1α (Homo sapiens, UniProt P48729+Q96SW2); assay: Western-blot assay of substrate protein degradation in hPBMCs, CK1α
T6 construct: endogenous in cells; host or cells: hPBMCs (Milecell Biotechnologies)

[1] = 50 nM and 500 nM tested (concentration behind the class not stated)
[2] = compounds tested at 50 nM and 500 nM (concentration of the table not stated)

T1 sequence (Q13422 whole entry): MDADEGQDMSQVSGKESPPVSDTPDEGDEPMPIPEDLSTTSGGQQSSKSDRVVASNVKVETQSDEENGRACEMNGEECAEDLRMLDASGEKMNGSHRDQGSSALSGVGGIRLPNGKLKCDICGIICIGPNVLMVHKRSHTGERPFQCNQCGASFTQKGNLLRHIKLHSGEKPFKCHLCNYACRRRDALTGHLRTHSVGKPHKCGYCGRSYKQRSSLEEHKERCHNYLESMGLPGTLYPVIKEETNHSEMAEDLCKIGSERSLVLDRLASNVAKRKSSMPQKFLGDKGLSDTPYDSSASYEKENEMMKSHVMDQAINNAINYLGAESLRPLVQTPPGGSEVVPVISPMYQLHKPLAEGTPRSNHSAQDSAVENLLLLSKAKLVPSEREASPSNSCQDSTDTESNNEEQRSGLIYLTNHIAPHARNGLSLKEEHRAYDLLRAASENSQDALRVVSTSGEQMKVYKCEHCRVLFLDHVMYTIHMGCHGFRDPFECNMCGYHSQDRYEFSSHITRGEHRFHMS
T1 sequence (Q96SW2 whole entry): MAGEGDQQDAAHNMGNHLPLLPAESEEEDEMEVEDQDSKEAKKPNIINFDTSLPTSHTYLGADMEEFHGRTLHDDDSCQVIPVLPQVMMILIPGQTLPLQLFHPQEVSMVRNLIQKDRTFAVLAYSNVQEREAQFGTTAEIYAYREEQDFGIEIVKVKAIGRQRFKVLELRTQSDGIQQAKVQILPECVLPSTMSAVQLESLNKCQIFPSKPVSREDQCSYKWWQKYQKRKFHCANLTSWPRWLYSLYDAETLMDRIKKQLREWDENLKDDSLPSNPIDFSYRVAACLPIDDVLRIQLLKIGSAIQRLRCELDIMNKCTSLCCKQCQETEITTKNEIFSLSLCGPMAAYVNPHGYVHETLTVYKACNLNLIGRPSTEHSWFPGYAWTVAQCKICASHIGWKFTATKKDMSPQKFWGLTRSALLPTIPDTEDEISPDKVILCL
T1 sequence (Q16531 whole entry partner): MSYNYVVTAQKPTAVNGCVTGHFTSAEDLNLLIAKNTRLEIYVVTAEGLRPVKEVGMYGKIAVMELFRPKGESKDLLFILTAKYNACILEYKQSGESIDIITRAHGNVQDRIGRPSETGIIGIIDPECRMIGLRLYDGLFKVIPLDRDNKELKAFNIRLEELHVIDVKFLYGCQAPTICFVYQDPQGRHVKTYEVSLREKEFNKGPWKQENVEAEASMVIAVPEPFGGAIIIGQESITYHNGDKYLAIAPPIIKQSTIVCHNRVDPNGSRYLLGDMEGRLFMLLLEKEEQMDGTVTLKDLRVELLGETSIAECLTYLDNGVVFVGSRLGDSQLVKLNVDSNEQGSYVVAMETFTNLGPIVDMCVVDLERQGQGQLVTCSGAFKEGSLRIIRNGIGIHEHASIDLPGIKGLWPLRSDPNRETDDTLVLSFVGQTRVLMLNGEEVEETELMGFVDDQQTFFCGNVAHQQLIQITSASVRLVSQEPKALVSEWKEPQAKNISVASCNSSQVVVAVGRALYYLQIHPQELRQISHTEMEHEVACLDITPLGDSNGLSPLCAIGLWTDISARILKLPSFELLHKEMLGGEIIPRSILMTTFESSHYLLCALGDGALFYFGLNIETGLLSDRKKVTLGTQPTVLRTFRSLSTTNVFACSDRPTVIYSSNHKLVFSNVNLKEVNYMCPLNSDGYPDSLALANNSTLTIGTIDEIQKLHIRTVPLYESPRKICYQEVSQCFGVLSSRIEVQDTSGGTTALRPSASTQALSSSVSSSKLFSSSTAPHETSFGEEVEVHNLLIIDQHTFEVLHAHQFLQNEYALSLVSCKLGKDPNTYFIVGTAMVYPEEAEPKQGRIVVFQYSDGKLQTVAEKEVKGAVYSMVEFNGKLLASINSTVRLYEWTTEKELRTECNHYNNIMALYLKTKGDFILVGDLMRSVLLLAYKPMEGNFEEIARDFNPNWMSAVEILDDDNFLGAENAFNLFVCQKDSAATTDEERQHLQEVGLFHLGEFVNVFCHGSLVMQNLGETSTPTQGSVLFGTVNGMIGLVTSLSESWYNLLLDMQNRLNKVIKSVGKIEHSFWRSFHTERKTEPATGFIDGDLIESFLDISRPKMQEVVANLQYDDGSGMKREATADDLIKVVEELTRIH
T6 sequence (P48729 whole entry): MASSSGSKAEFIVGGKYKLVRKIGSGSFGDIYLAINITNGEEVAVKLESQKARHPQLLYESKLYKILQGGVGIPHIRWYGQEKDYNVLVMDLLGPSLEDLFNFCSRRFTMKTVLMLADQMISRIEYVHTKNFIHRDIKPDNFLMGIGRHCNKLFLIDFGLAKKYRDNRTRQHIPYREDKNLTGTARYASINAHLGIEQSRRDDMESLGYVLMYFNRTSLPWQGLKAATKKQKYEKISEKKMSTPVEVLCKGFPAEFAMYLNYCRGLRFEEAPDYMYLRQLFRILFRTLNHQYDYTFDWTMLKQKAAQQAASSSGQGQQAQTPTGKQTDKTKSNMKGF
T6 sequence (Q96SW2 whole entry): as the sequence (Q96SW2 whole entry) above
T6 sequence (Q16531 whole entry partner): as the sequence (Q16531 whole entry partner) above
T3 sequence (P30291 whole entry): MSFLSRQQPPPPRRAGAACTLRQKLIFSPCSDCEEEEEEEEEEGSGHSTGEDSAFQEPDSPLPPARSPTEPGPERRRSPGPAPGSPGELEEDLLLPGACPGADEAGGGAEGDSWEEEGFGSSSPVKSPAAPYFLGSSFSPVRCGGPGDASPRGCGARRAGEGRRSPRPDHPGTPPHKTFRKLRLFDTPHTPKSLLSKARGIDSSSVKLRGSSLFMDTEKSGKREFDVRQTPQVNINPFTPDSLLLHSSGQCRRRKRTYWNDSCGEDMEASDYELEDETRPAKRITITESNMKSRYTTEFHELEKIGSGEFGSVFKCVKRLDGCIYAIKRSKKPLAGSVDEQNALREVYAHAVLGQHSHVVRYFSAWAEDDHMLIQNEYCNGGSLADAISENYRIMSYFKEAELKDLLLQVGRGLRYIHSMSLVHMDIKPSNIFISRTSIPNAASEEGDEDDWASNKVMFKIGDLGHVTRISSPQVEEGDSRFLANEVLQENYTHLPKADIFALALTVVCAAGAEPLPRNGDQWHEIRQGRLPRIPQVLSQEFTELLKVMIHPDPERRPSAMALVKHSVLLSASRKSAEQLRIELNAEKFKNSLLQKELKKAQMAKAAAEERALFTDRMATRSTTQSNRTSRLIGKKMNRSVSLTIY
T3 sequence (Q96SW2 whole entry): as the sequence (Q96SW2 whole entry) above
T3 sequence (Q16531 whole entry partner): as the sequence (Q16531 whole entry partner) above
T5 sequence (Q9UKT9 whole entry): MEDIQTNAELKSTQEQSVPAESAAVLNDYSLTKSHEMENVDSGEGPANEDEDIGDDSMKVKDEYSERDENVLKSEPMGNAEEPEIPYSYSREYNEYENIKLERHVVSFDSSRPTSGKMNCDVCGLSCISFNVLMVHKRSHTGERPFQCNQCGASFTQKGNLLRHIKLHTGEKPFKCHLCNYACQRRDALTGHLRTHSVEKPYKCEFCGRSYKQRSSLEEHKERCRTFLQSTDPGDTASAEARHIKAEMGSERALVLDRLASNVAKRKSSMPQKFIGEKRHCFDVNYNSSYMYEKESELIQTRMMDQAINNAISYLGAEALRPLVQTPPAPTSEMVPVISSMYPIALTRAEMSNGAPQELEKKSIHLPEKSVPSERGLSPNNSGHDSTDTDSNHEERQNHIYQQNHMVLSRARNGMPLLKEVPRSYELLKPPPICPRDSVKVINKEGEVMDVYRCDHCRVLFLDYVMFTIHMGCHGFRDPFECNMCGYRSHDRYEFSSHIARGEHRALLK
T5 sequence (Q96SW2 whole entry): as the sequence (Q96SW2 whole entry) above
T5 sequence (Q16531 whole entry partner): as the sequence (Q16531 whole entry partner) above
T2 sequence (P15170 whole entry): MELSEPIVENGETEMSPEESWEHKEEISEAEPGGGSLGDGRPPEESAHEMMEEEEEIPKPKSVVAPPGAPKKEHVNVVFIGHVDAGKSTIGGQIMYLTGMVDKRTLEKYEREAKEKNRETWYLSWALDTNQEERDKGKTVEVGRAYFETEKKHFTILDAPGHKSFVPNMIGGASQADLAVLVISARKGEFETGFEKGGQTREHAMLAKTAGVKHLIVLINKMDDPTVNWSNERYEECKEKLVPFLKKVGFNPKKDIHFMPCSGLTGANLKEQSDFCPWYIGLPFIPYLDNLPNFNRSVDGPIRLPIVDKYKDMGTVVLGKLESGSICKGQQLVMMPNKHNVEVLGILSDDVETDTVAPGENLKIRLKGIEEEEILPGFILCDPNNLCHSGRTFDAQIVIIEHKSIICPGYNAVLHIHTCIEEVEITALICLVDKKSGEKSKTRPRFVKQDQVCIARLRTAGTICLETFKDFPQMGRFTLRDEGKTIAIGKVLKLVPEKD
T2 sequence (Q96SW2 whole entry): as the sequence (Q96SW2 whole entry) above
T2 sequence (Q16531 whole entry partner): as the sequence (Q16531 whole entry partner) above

## O=C1CCC(N2C(=O)c3ccc(CN4CCN(c5ccccc5Cl)CC4)cc3C2=O)C(=O)N1 (stereo not drawn) [GT-06274, 5-((4-(2-chlorophenyl)piperazin-1-yl)methyl)-2-(2,6-dioxopiperidin-3-yl)isoindoline-1,3-dione]
IKZF1; [1]
  IKZF 1 substrate protein remaining %: B (80%< substrate protein remaining %≤ 100%)
GSPT1; [1]
  GSPT1 substrate protein remaining %: A (0% ≤ substrate protein remaining % ≤ 80%)
WEE1; [1]
  Weel substrate protein remaining %: B (80%< substrate protein remaining %≤ 100%)
IKZF2; [1]
  IKZF2 substrate protein remaining %: B (80%< substrate protein remaining %≤ 100%)
IKZF3; [1]
  IKZF3 substrate protein remaining %: B (80%< substrate protein remaining %≤ 100%)
CK1α; [1]
  CK1a substrate protein remaining %: B (80%< substrate protein remaining %≤ 100%)

## O=C1CCC(N2C(=O)c3ccc(CN4CCN(c5nsc6ccccc56)CC4)cc3C2=O)C(=O)N1 (stereo not drawn) [GT-06763, 5-((4-(benzo[d]isothiazol-3-yl)piperazin-1-yl)methyl)-2-(2,6-dioxopiperidin-3-yl)isoindoline-1,3-dione]
IKZF1; [1]
  IKZF 1 substrate protein remaining %: A (0% ≤ substrate protein remaining % ≤ 80%)
GSPT1; [1]
  GSPT1 substrate protein remaining %: A (0% ≤ substrate protein remaining % ≤ 80%)
WEE1; [1]
  Weel substrate protein remaining %: A (0% ≤ substrate protein remaining % ≤ 80%)
IKZF2; [1]
  IKZF2 substrate protein remaining %: B (80%< substrate protein remaining %≤ 100%)
IKZF3; [1]
  IKZF3 substrate protein remaining %: B (80%< substrate protein remaining %≤ 100%)
CK1α; [1]
  CK1a substrate protein remaining %: A (0% ≤ substrate protein remaining % ≤ 80%)

## O=C1CCC(N2C(=O)c3ccc(CN4CC=C(c5ccsc5)CC4)cc3C2=O)C(=O)N1 (stereo not drawn) [GT-06261, 2-(2,6-dioxopiperidin-3-yl)-5-((4-(thiophen-3-yl)-3,6-dihydropyridin-1(2H)-yl)methyl)isoindoline-1,3-dione]
IKZF1; [1]
  IKZF 1 substrate protein remaining %: A (0% ≤ substrate protein remaining % ≤ 80%)
GSPT1; [1]
  GSPT1 substrate protein remaining %: A (0% ≤ substrate protein remaining % ≤ 80%)
WEE1; [1]
  Weel substrate protein remaining %: A (0% ≤ substrate protein remaining % ≤ 80%)
IKZF2; [1]
  IKZF2 substrate protein remaining %: A (0% ≤ substrate protein remaining % ≤ 80%)
IKZF3; [1]
  IKZF3 substrate protein remaining %: A (0% ≤ substrate protein remaining % ≤ 80%)
CK1α; [1]
  CK1a substrate protein remaining %: A (0% ≤ substrate protein remaining % ≤ 80%)

## Cc1cscc1C1=CCN(Cc2ccc3c(c2)C(=O)N(C2CCC(=O)NC2=O)C3=O)CC1 (stereo not drawn) [GT-06221, 2-(2,6-dioxopiperidin-3-yl)-5-((4-(4-methylthiophen-3-yl)-3,6-dihydropyridin-1(2H)-yl)methyl)isoindoline-1,3-dione]
IKZF1; [1]
  IKZF 1 substrate protein remaining %: A (0% ≤ substrate protein remaining % ≤ 80%)
GSPT1; [1]
  GSPT1 substrate protein remaining %: A (0% ≤ substrate protein remaining % ≤ 80%)
WEE1; [1]
  Weel substrate protein remaining %: A (0% ≤ substrate protein remaining % ≤ 80%)
IKZF2; [1]
  IKZF2 substrate protein remaining %: A (0% ≤ substrate protein remaining % ≤ 80%)
IKZF3; [1]
  IKZF3 substrate protein remaining %: A (0% ≤ substrate protein remaining % ≤ 80%)
CK1α; [1]
  CK1a substrate protein remaining %: A (0% ≤ substrate protein remaining % ≤ 80%)

## O=C1CCC(N2C(=O)c3ccc(CN4CCC(c5nccc(Cl)c5Cl)CC4)cc3C2=O)C(=O)N1 (stereo not drawn) [GT-06607, 5-((4-(3,4-dichloropyridin-2-yl)piperidin-1-yl)methyl)-2-(2,6-dioxopiperidin-3-yl)isoindoline-1,3-dione]
IKZF1; [1]
  IKZF 1 substrate protein remaining %: B (80%< substrate protein remaining %≤ 100%)
GSPT1; [1]
  GSPT1 substrate protein remaining %: A (0% ≤ substrate protein remaining % ≤ 80%)
WEE1; [1]
  Weel substrate protein remaining %: B (80%< substrate protein remaining %≤ 100%)
IKZF2; [1]
  IKZF2 substrate protein remaining %: B (80%< substrate protein remaining %≤ 100%)
IKZF3; [1]
  IKZF3 substrate protein remaining %: B (80%< substrate protein remaining %≤ 100%)
CK1α; [1]
  CK1a substrate protein remaining %: B (80%< substrate protein remaining %≤ 100%)

## O=C1CCC(N2C(=O)c3ccc(CN4CCC(c5cccc6c(F)cccc56)CC4)cc3C2=O)C(=O)N1 (stereo not drawn) [GT-06263, 2-(2,6-dioxopiperidin-3-yl)-5-((4-(5-fluoronaphthalen-1-yl)piperidin-1-yl)methyl)isoindoline-1,3-dione]
IKZF1; [2]
  IKZF 1 substrate protein remaining %: B (80%< substrate protein remaining %≤ 100%)
GSPT1; [2]
  GSPT1 substrate protein remaining %: A (0% ≤ substrate protein remaining % ≤ 80%)
WEE1; [2]
  Weel substrate protein remaining %: B (80%< substrate protein remaining %≤ 100%)
IKZF2; [2]
  IKZF2 substrate protein remaining %: B (80%< substrate protein remaining %≤ 100%)
IKZF3; [2]
  IKZF3 substrate protein remaining %: A (0% ≤ substrate protein remaining % ≤ 80%)
CK1α; [2]
  CK1a substrate protein remaining %: A (0% ≤ substrate protein remaining % ≤ 80%)

## O=C1CCC(N2C(=O)c3ccc(CN4CCC(c5ccccc5F)CC4)cc3C2=O)C(=O)N1 (stereo not drawn) [GT-06373, 2-(2,6-dioxopiperidin-3-yl)-5-((4-(2-fluorophenyl)piperidin-1-yl)methyl)isoindoline-1,3-dione]
IKZF1; [1]
  IKZF 1 substrate protein remaining %: A (0% ≤ substrate protein remaining % ≤ 80%)
GSPT1; [1]
  GSPT1 substrate protein remaining %: A (0% ≤ substrate protein remaining % ≤ 80%)
WEE1; [1]
  Weel substrate protein remaining %: A (0% ≤ substrate protein remaining % ≤ 80%)
IKZF2; [1]
  IKZF2 substrate protein remaining %: A (0% ≤ substrate protein remaining % ≤ 80%)
IKZF3; [1]
  IKZF3 substrate protein remaining %: B (80%< substrate protein remaining %≤ 100%)
CK1α; [1]
  CK1a substrate protein remaining %: B (80%< substrate protein remaining %≤ 100%)

## O=C1CCC(N2C(=O)c3ccc(CN4CCC(c5ccnc(Cl)c5Cl)CC4)cc3C2=O)C(=O)N1 (stereo not drawn) [GT-06615, 5-((4-(2,3-dichloropyridin-4-yl)piperidin-1-yl)methyl)-2-(2,6-dioxopiperidin-3-yl)isoindoline-1,3-dione]
IKZF1; [1]
  IKZF 1 substrate protein remaining %: B (80%< substrate protein remaining %≤ 100%)
GSPT1; [1]
  GSPT1 substrate protein remaining %: A (0% ≤ substrate protein remaining % ≤ 80%)
WEE1; [1]
  Weel substrate protein remaining %: A (0% ≤ substrate protein remaining % ≤ 80%)
IKZF2; [1]
  IKZF2 substrate protein remaining %: B (80%< substrate protein remaining %≤ 100%)
IKZF3; [1]
  IKZF3 substrate protein remaining %: A (0% ≤ substrate protein remaining % ≤ 80%)
CK1α; [1]
  CK1a substrate protein remaining %: A (0% ≤ substrate protein remaining % ≤ 80%)

## Cc1cscc1N1CCN(Cc2ccc3c(c2)C(=O)N(C2CCC(=O)NC2=O)C3=O)CC1 (stereo not drawn) [GT-06260, 2-(2,6-dioxopiperidin-3-yl)-5-((4-(4-methylthiophen-3-yl)piperazin-1-yl)methyl)isoindoline-1,3-dione]
IKZF1; [1]
  IKZF 1 substrate protein remaining %: B (80%< substrate protein remaining %≤ 100%)
GSPT1; [1]
  GSPT1 substrate protein remaining %: A (0% ≤ substrate protein remaining % ≤ 80%)
WEE1; [1]
  Weel substrate protein remaining %: B (80%< substrate protein remaining %≤ 100%)
IKZF2; [1]
  IKZF2 substrate protein remaining %: B (80%< substrate protein remaining %≤ 100%)
IKZF3; [1]
  IKZF3 substrate protein remaining %: B (80%< substrate protein remaining %≤ 100%)
CK1α; [1]
  CK1a substrate protein remaining %: B (80%< substrate protein remaining %≤ 100%)

## Cc1cc2c(C3CCN(Cc4ccc5c(c4)C(=O)N(C4CCC(=O)NC4=O)C5=O)CC3)ncnc2s1 (stereo not drawn) [GT-06592, 2-(2,6-dioxopiperidin-3-yl)-5-((4-(6-methylthieno[2,3-d]pyrimidin-4-yl)piperidin-1-yl)methyl)isoindoline-1,3-dione]
IKZF1; [1]
  IKZF 1 substrate protein remaining %: A (0% ≤ substrate protein remaining % ≤ 80%)
GSPT1; [1]
  GSPT1 substrate protein remaining %: A (0% ≤ substrate protein remaining % ≤ 80%)
WEE1; [1]
  Weel substrate protein remaining %: A (0% ≤ substrate protein remaining % ≤ 80%)
IKZF2; [1]
  IKZF2 substrate protein remaining %: A (0% ≤ substrate protein remaining % ≤ 80%)
IKZF3; [1]
  IKZF3 substrate protein remaining %: A (0% ≤ substrate protein remaining % ≤ 80%)
CK1α; [1]
  CK1a substrate protein remaining %: B (80%< substrate protein remaining %≤ 100%)

## O=C1CCC(N2C(=O)c3ccc(CN4CCN(Cc5ccc(C67CC8CC(CC(C8)C6)C7)cc5)CC4)cc3C2=O)C(=O)N1 (stereo not drawn) [GT-06810, 5-((4-(4-((3r,5r,7r)-adamantan-1-yl)benzyl)piperazin-1-yl)methyl)-2-(2,6-dioxopiperidin-3-yl)isoindoline-1,3-dione]
IKZF1; [1]
  IKZF 1 substrate protein remaining %: A (0% ≤ substrate protein remaining % ≤ 80%)
GSPT1; [1]
  GSPT1 substrate protein remaining %: A (0% ≤ substrate protein remaining % ≤ 80%)
WEE1; [1]
  Weel substrate protein remaining %: B (80%< substrate protein remaining %≤ 100%)
IKZF2; [1]
  IKZF2 substrate protein remaining %: A (0% ≤ substrate protein remaining % ≤ 80%)
IKZF3; [1]
  IKZF3 substrate protein remaining %: A (0% ≤ substrate protein remaining % ≤ 80%)
CK1α; [1]
  CK1a substrate protein remaining %: A (0% ≤ substrate protein remaining % ≤ 80%)

## O=C1CCC(N2C(=O)c3ccc(CN4CCN(c5nccc(F)c5F)CC4)cc3C2=O)C(=O)N1 (stereo not drawn) [GT-06555, 5-((4-(3,4-difluoropyridin-2-yl)piperazin-1-yl)methyl)-2-(2,6-dioxopiperidin-3-yl)isoindoline-1,3-dione]
IKZF1; [1]
  IKZF 1 substrate protein remaining %: B (80%< substrate protein remaining %≤ 100%)
GSPT1; [1]
  GSPT1 substrate protein remaining %: A (0% ≤ substrate protein remaining % ≤ 80%)
WEE1; [1]
  Weel substrate protein remaining %: B (80%< substrate protein remaining %≤ 100%)
IKZF2; [1]
  IKZF2 substrate protein remaining %: A (0% ≤ substrate protein remaining % ≤ 80%)
IKZF3; [1]
  IKZF3 substrate protein remaining %: B (80%< substrate protein remaining %≤ 100%)
CK1α; [1]
  CK1a substrate protein remaining %: B (80%< substrate protein remaining %≤ 100%)

## Cc1csc2ncnc(C3=CCN(Cc4ccc5c(c4)C(=O)N(C4CCC(=O)NC4=O)C5=O)CC3)c12 (stereo not drawn) [GT-06654, 2-(2,6-dioxopiperidin-3-yl)-5-((4-(5-methylthieno[2,3-d]pyrimidin-4-yl)-3,6-dihydropyridin-1(2H)-yl)methyl)isoindoline-1,3-dione]
IKZF1; [1]
  IKZF 1 substrate protein remaining %: B (80%< substrate protein remaining %≤ 100%)
GSPT1; [1]
  GSPT1 substrate protein remaining %: A (0% ≤ substrate protein remaining % ≤ 80%)
WEE1; [1]
  Weel substrate protein remaining %: A (0% ≤ substrate protein remaining % ≤ 80%)
IKZF2; [1]
  IKZF2 substrate protein remaining %: B (80%< substrate protein remaining %≤ 100%)
IKZF3; [1]
  IKZF3 substrate protein remaining %: B (80%< substrate protein remaining %≤ 100%)
CK1α; [1]
  CK1a substrate protein remaining %: B (80%< substrate protein remaining %≤ 100%)
